The values that follow come from US11384385B2, “Method for predicting therapeutic effects of irinotecan, and kit for same” (Yamaguchi University, priority 2017, dated 2022).

Read-outs that look alike come from different tables or passages of the source.

One data set has as its system cancer. The settings on record: general response rate; cited from earlier work.
Data set [1] has as its system colorectal cancer (stage IV). The data set is described as follows: Therapeutic effect of irinotecan on cancer evaluated by RECIST (CR and PR = therapeutic effect), by rs1980576 genotype. It is filed as in vivo, human. The settings on record: for therapeutic effect observed (CR+PR): rs1980576 wild-type homozygote (A/A). Here is the method:
Analysis objects were 140 cases among 155 Japanese colorectal cancer (stage IV) cases who were administered with irinotecan excluding cases who were administered with a reduced amount of irinotecan, UGT1A1*6 (homo), UGT1A1*28 (homo), and their compound heterogeneous cases and determined for the therapeutic effect and 66 subpopulation cases (FOLFIRI cases with a unified regimen) among the 140 cases. FOLFIRI is one of standard treatments for colorectal cancer and using irinotecan simultaneous with treatment with a combination of fluorouracil and 1-leucovorin. The 140 cases were Japanese colorectal cancer patients treated with a regimen including irinotecan. The regimen in this Example includes combination therapy, in addition to irinotecan, with FOLFIRI using fluorouracil and 1-leucovorin, […] using capecitabine, IRIS using S-1, or an anti-EGFR antibody agent ([…], Cetuximab, or Panitumumab). Comprehensive analysis (WES analysis) of the prepared genome DNA was performed by the same method as described in WO2016/132736 (PCT/JP2016/000793). That is, three types of cases: cases (n=5) as a control group in which UGT1A genetic polymorphisms (seven positions of UGT1A1*6, *27, and *28, UGT1A7 (387T>G and 622T>C), UGT1A9*1b, and UGT1A1*60) were all homozygotes being low in side effect risk and no side effect from irinotecan were observed; cases (n=5) as a case group in which although the UGT1A genetic polymorphisms were the same as those in the control group, side effects (Grade 3, entire course) were observed; and cases (n=5) in which any of the UGT1A genetic polymorphisms was a heterozygote and a side effect was observed from the first administration of irinotecan (Grade 4), were established, and the case and control groups were analyzed. […] The genetic polymorphisms and the side effect frequency and the response rates were statistically analyzed using a Cochran-Armitage trend test. […] Accordingly, 11 single nucleotide polymorphisms in total: the above-mentioned single nucleotide polymorphisms a) to f) and single nucleotide polymorphisms g) UGT1A1*6, h) UGT1A1*60, i) UGT1A7 (387T>G), j) UGT1A7 (622T>C), and k) UGT1A9*1b known to be involved in side effects from irinotecan, were analyzed for a relationship with the therapeutic effects of irinotecan on cancer. […] CR and PR were determined to have a therapeutic effect; and SD and PD were determined to have no therapeutic effect. […] FIGS. 1 and 2 show the analysis results of 140 cases determined for therapeutic effects, and FIGS. 3 and 4 show the analysis results of 66 subpopulation cases among the 140 cases. […] In addition, in FIGS. 1 to 4, “Odds ratio” is calculated as an odds ratio of the therapeutic effects (efficacy) of irinotecan on cancer in a wild-type homozygote or a mutant-type homozygote by Fisher's exact test.

The conditions of data set [2]: FIG. 5, Table 2 of WO2016/132736, cited from earlier work.
[3] abbreviates: rs1980576 mutant-type homozygote (G/G).

As to `CCc1c2c(nc3ccc(OC(=O)N4CCC(N5CCCCC5)CC4)cc13)-c1cc3c(c(=O)n1C2)COC(=O)[C@]3(O)CC` [irinotecan, (S)-4,11-diethyl-3,4,12,14-tetrahydro-4-hydroxy-3,14-dioxo-1H-pyrano[3′,4′:6,7]indolizino[1,2-b]quinolin-9-yl ester, CPT-11,1,4′-bipiperidine-1′-carboxylic acid], in the data set with cancer, the “response rate of irinotecan generally” value is “about 32%”. Moreover, the “possibility of a therapeutic effect of irinotecan on cancer” value in data set [1] (rs1980576 heterozygote (A/G)) was “high”. Moreover, in data set [1] (setting [3]), the therapeutic effect result is on record as “low”. Moreover, the “therapeutic effect observed (CR+PR)” value in data set [1] (66 FOLFIRI cases only (FIG. 3)) stood at 43%; in data set [1] (140 Japanese colorectal cancer cases, regimen including irinotecan (FIG. 1)), 38%. Further, the entries for the “risk of side effects” value in data set [2] (rs1980576 heterozygote (A/G)), in data set [2] (setting [3]) and in data set [2] (rs1980576 wild-type homozygote (A/A)) were “low”, “high” and “low”, respectively.
